In publication PMC5321434, “Dihydrobenz[e][1,4]oxazepin-2(3H)-ones, a new anthelmintic chemotype immobilising whipworm and reducing infectivity in vivo” (PLoS Neglected Tropical Diseases, 2017):

Test system: adult T. muris
Test: Ex vivo adult T. muris automated motility assay (primary/secondary screen at 100 μM and dose-response)
Design: species or system Trichuris muris
Details: 100 μM; for COMBINED_SCREEN_ACTIVITY: combined primary and secondary screen minus log fold change in movement, adult T. muris; for PRIMARY_SCREEN_MINUS_LOG_FOLD_CHANGE_MOVEMENT: primary screen; for PRIMARY_SCREEN_MINUS_LOG_FOLD_CHANGE_MOVEMENT / SECONDARY_SCREEN_MINUS_LOG_FOLD_CHANGE_MOVEMENT: adult T. muris motility; for SECONDARY_SCREEN_MINUS_LOG_FOLD_CHANGE_MOVEMENT: secondary screen
Method: Severe combined immune deficiency (SCID) mice were bred in the Biological Services Facility at the University of Manchester. Both male and female SCID mice were infected with a high dose of 200 infective embryonated T. muris eggs via oral gavage. At day 35 post-infection, groups of 5 mice were killed and their […] colons removed. Guts were opened longitudinally, washed with pre-warmed Roswell Park Memorial Institute (RPMI) 1640 media supplemented with penicillin (500U/ml) and streptomycin (500μg/ml) and adult T. muris worms gently removed using fine forceps. Worms removed from SCID mice were maintained in RPMI-1640 media supplemented with penicillin (500U/ml) and streptomycin (500μg/ml) at approximately 37°C and studied on the same day. Using fine forceps, individual live worms were placed into 96 well plates containing 75μl of RPMI-1640 medium supplemented with penicillin (500U/ml) and streptomycin (500μg/ml) plus 1% final concentration of DMSO or compound dissolved in DMSO. In the primary screen the test compound concentration was 100μM. Plates were then incubated at 37°C, 5% CO2, and motility was analysed after 24 hours. Worm movement was quantified using an automated motility assay. This system gives an estimate of worm movement in each well by thresholding and quantifying pixel intensity variance over time. An earlier version of this system has been previously described. One adult T. muris worm was used per well, with one well per compound in each replicate of the primary screen. The primary screen was repeated each week for a period of four weeks giving four independent biological replicates from separate parasite batches for each compound. Dose-response curves were calculated with the four factor log-logistic model using the R package drc. The primary screen was carried out at 100μM final concentration. Assay plates were assigned unique IDs and statistical analysis was performed without knowledge of compound identities using R scripts. Once hit wells were identified, well/plate positions were mapped to compound identities using DataWarrior [28]. […] Compounds identified as having encouraging activity from the DMSO solution samples were then resynthesized for confirmatory testing.

| Structure (SMILES) | COMBINED_SCREEN_ACTIVITY | PRIMARY_SCREEN_MINUS_LOG_FOLD_CHANGE_MOVEMENT | SECONDARY_SCREEN_MINUS_LOG_FOLD_CHANGE_MOVEMENT |
| --- | --- | --- | --- |
| COCc1cccc(-c2ccc3c(c2)N(CC2CC2)C(=O)COC3)c1 [Compound 63] | -1.629 | -1.629 |  |
| O=C1COCc2cc(Br)ccc2N1CC1CCCCC1 [Compound 64] | 3.118 | 3.494 | 2.742 |
| O=C1COCc2ccc(Br)cc2N1CC1CCCCC1 [Compound 65] | -1.362 | -1.362 |  |
| COCCN1C(=O)COCc2ccc(-c3cccc(C(C)C)c3)cc21 [Compound 66] | 7.026 | 7.026 |  |
| Cn1cc(-c2ccc3c(c2)COCC(=O)N3CC2CCCCC2)cn1 [Compound 67] | 7.315 | 2.012 | 12.6188 |
| Cn1cc(-c2ccc3c(c2)N(CC2CCCCC2)C(=O)COC3)cn1 [Compound 68] | -0.9119 | -0.9119 |  |
| COc1ccc(F)cc1-c1ccc2c(c1)N(CC1CC1)C(=O)COC2 [Compound 69] | 11.5841 | 10.5493 | 12.6188 |
| COc1cc(F)ccc1-c1ccc2c(c1)N(CC1CC1)C(=O)COC2 [Compound 70] | 11.6216 | 10.6243 | 12.6188 |
| COCCN1C(=O)COCc2ccc(-c3cccc(COC)c3)cc21 [Compound 71] | -1.553 | -1.553 |  |
| O=C1COCc2cc(-c3cccnc3)ccc2N1CCc1ccccc1 [Compound 73] | 3.006 | 3.006 |  |
| O=C1COCc2ccc(-c3cccnc3)cc2N1CCc1ccccc1 [Compound 74] | -0.776 | -0.776 |  |
| O=C1COCc2cc(-c3ccncc3)ccc2N1CCc1ccccc1 [Compound 75] | 2.679 | 2.679 |  |
| Cc1ccccc1CN1C(=O)COCc2ccc(-c3cccnc3)cc21 [Compound 76] | -0.5388 | -0.5388 |  |
| COCCN1C(=O)COCc2ccc(-c3ccc(F)cc3OC)cc21 [Compound 77] | 0.2033 | 0.2033 |  |
| O=C1COCc2cc(-c3cccc(O)c3)ccc2N1Cc1ccccc1 [Compound 78] | -0.318 | -0.318 |  |
| O=C1COCc2cc(Br)ccc2N1CCc1ccccc1 [Compound 79] | -0.767 | -0.767 |  |
| O=C1COCc2ccc(Br)cc2N1CCc1ccccc1 [Compound 80] | 10.5493 | 10.5493 |  |
| Cc1ccccc1CN1C(=O)COCc2ccc(Br)cc21 [Compound 81] | 11.5466 | 10.4743 | 12.6188 |
| Cc1ccc(CN2C(=O)COCc3cc(-c4cnn(C)c4)ccc32)cc1 [Compound 82] | 0.6432 | 0.6432 |  |
| COCCN1C(=O)COCc2ccc(-c3ccc(F)c(Cl)c3)cc21 [Compound 83] | 1.936 | 1.936 |  |
| COCCN1C(=O)COCc2ccc(-c3cc(F)cc(Cl)c3)cc21 [Compound 84] | 0.4605 | 0.4605 |  |
| O=C1COCc2ccc(-c3ccccc3)cc2N1CCN1CCOCC1 [Compound 85] | 0.2067 | 0.2067 |  |
| O=C1COCc2ccc(-c3cccnc3)cc2N1CCN1CCOCC1 [Compound 86] | -1.564 | -1.564 |  |
| COCCN1C(=O)COCc2ccc(-c3cccc(NC(C)=O)c3)cc21 [Compound 88] | -0.1104 | -1.635 | 1.414 |
| N#Cc1cccc(-c2ccc3c(c2)N(Cc2ccccc2)C(=O)COC3)c1 [Compound 89] | 0.3109 | 0.3109 |  |
| N#Cc1cccc(-c2ccc3c(c2)COCC(=O)N3Cc2ccccc2)c1 [Compound 90] | -1.512 | -1.512 |  |

| Structure (SMILES) | COMBINED_SCREEN_ACTIVITY | PRIMARY_SCREEN_MINUS_LOG_FOLD_CHANGE_MOVEMENT | SECONDARY_SCREEN_MINUS_LOG_FOLD_CHANGE_MOVEMENT |
| --- | --- | --- | --- |
| O=C1COCc2cc(Br)ccc2N1CCN1CCOCC1 [Compound 91] | -2.221 | -2.221 |  |
| O=C1COCc2ccc(Br)cc2N1CCN1CCOCC1 [Compound 92] | -1.293 | -1.293 |  |
| COCCN1C(=O)COCc2ccc(-c3cccc(C(=O)OC)c3)cc21 [Compound 93] | -1.513 | -1.513 |  |
| COc1ccccc1-c1cccc2c1COCC(=O)N2Cc1ccccc1 [Compound 94] | 10.5493 | 10.5493 |  |
| COc1ccccc1-c1ccc2c(c1)COCC(=O)N2Cc1ccccc1 [Compound 95] | -1.179 | -1.179 |  |
| COc1ccccc1-c1ccc2c(c1)N(Cc1ccccc1)C(=O)COC2 [Compound 96] | -0.4906 | -0.4906 |  |
| O=C1COCc2cc(-c3cccc(O)c3)ccc2N1CCc1ccccc1 [Compound 97] | -0.7944 | -0.7944 |  |
| Cc1ccc(CN2C(=O)COCc3cc(-c4cccc(O)c4)ccc32)cc1 [Compound 98] | -1.09 | -1.09 |  |
| O=C1COCc2ccc(-c3cccc(O)c3)cc2N1CCc1ccccc1 [Compound 99] | -1.58 | -1.58 |  |
| COc1ccc(-c2ccc3c(c2)N(Cc2ccccc2)C(=O)COC3)cc1 [Compound 100] | 3.027 | 3.027 |  |
| COc1cccc(CN2C(=O)COCc3ccc(-c4ccccc4)cc32)c1 [Compound 101] | -0.6789 | -0.6789 |  |
| COc1ccc(-c2ccc3c(c2)N(Cc2ccccc2)C(=O)COC3)cn1 [Compound 102] | 0.7062 | 0.7062 |  |
| COc1cccc(CN2C(=O)COCc3cc(Br)ccc32)c1 [Compound 103] | 7.462 | 7.462 |  |
| COc1cccc(CN2C(=O)COCc3ccc(Br)cc32)c1 [Compound 104] | -1.975 | -1.975 |  |
| COc1cccc(CN2C(=O)COCc3cc(-c4cnn(C)c4)ccc32)c1 [Compound 105] | -0.2739 | -0.55 | 0.002295 |
| O=C1COCc2cc(-c3cccnc3)ccc2N1Cc1ccccc1Cl [Compound 106] | 6.595 | 6.595 |  |
| O=C1COCc2ccc(-c3cccnc3)cc2N1Cc1ccccc1Cl [Compound 107] | 2.19 | 2.19 |  |
| COCCN1C(=O)COCc2ccc(-c3cccc(C(F)(F)F)c3)cc21 [Compound 108] | -0.2552 | -0.2552 |  |
| O=C1COCc2cc(-c3cccnc3)ccc2N1Cc1cc(F)cc(F)c1 [Compound 109] | 7.462 | 7.462 |  |
| O=C1COCc2ccc(-c3cccnc3)cc2N1Cc1cc(F)cc(F)c1 [Compound 110] | -0.9208 | -0.9208 |  |
| Cc1ccccc1-c1ccc2c(c1)COCC(=O)N2CCN1CCOCC1 [Compound 111] | -0.2494 | -0.2494 |  |
| Cc1ccccc1-c1ccc2c(c1)N(CCN1CCOCC1)C(=O)COC2 [Compound 112] | -1.303 | -1.303 |  |
| Cn1cc(-c2ccc3c(c2)COCC(=O)N3Cc2ccccc2Cl)cn1 [Compound 113] | 0.5472 | 0.5472 |  |
| Cn1cc(-c2ccc3c(c2)N(Cc2ccccc2Cl)C(=O)COC3)cn1 [Compound 114] | 1.278 | 1.278 |  |
| Cc1ccc(CN2C(=O)COCc3cc(-c4cccc(C#N)c4)ccc32)cc1 [Compound 115] | -2.656 | -2.656 |  |
